5 compounds from patent US12097241B2, “Methods of treating kidney failure, and/or improving or stablizing renal function using modified relaxin polypeptides” (BRISTOL-MYERS SQUIBB COMPANY, priority 2017, dated 2024) can be followed below.

A short description of data set [1]: Rat renal blood flow studies. In kind it is in vivo, Sprague Dawley rats. Conditions: 1 mg/kg intravenously; for % change in RBF over baseline: anesthetized male Sprague Dawley rats, renal blood flow recorded for 45 min; for effect on renal blood flow (in words): rats. As for the experimental part:
Male Sprague Dawley rats (˜250-300 g) were anesthetized with sodium pentobarbital (50 mg/kg), the trachea was cannulated with PE-205 tubing to maintain airway patency, and temperature was maintained at 37° C. with a heated surgical plate. A 1.4 F pressure catheter (Millar Inc., Houston, TX) was advanced into the right carotid artery to measure aortic blood pressure. The right jugular vein was cannulated with PE-50 tubing for administration of test articles. The left kidney was exposed by a retroperitoneal incision, and a Doppler flow probe (Model 0.5 VB, Transonic System Inc., Ithaca, NY) was attached to the left renal artery to monitor blood flow. Sodium pentobarbital (15 mg/kg, intraperitoneal) was supplemented after completion of these surgical procedures. Following a 10-15 min equilibration, the relaxin was administered at 1 mg/kg intravenously in a dosing volume of 0.15 to 1.82 mL/kg over 30 seconds via an infusion pump (Harvard Apparatus, Holliston, MA). Blood pressure, heart rate and renal blood flow were continuously recorded for 45 min after relaxin administration using a Millar MPVS Ultra Signal Conditioning unit connected to a desktop computer running LabChart 7-Pro data acquisition software (ADInstruments, Dunedin, New Zealand) (Table 5). Table 5. Rat renal blood flow changes (abbreviations as in Table 3).

Data set [2] in a line: In vivo pharmacokinetic (PK) studies in rats. The conditions noted are these: rats, SC dose 1.0 mg/kg, adjusted from 0.2 mpk. More on the design: species or system Sprague-Dawley rats. An outline of the steps:
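Male Sprague-Dawley rats (n=3) given a single 1 mg/kg IV or SC dose of relaxin constructs in 20 mM histidine, 750 mM NaCl, pH 6.0; jugular serum sampled to 72 h. Serum relaxin by ELISA; Cmax, AUCinf, C24 and half-life from non-compartmental analysis of individual profiles.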

“Also recorded” adds a separate entry of the source. Marks after values point to notes of the source that are not given here. Square brackets hold non-standard residues; d marks the D form. Ends that are not written are not given here. Phe(4-Ac) = CC(=O)c1ccc(C[C@H](N)C(=O)O)cc1

Take `CCCCCCCCCCCCCC(=O)N[C@@H](CCC(=O)NCCOCCOCCOCCOCCOCCOCCOCCOCCOCCOCCOCCOCCOCCOCCOCCOCCOCCOCCOCCOCCOCCOCCOCCOCCOCCOCCOCCOCCOCCOCCOCCOCCOCCOCCOCCOCCC(=O)NCCO/N=C(\C)c1ccc(C[C@H](N)C(=O)N[C@@H](CC(C)C)C(=O)N[C@@H](Cc2ccc(O)cc2)C(=O)N[C@@H](CO)C(=O)N[C@@H](C)C(=O)N[C@@H](CC(C)C)C(=O)N[C@@H](C)C(=O)N[C@@H](CC(N)=O)C(=O)N[C@@H](CCCCN)C(=O)N[C@H]2CSSC[C@@H]3NC(=O)CNC(=O)[C@H](C(C)C)NC(=O)[C@H](Cc4c[nH]cn4)NC(=O)[C@H](CSSC[C@H](NC(=O)[C@H](CC(C)C)NC(=O)[C@H](CCCCN)NC(=O)[C@@H](NC(=O)[C@@H](NC(=O)[C@H](CCC(=O)O)NC(=O)[C@H](CCC(=O)O)NC(=O)[C@H](CCSC)NC(=O)[C@H](Cc4c[nH]c5ccccc45)NC(=O)[C@H](CO)NC(=O)[C@H](C)N)C(C)C)[C@@H](C)CC)C(=O)NCC(=O)N[C@@H](CCCNC(=N)N)C(=O)N[C@@H](CCC(=O)O)C(=O)N[C@@H](CC(C)C)C(=O)N[C@@H](C(C)C)C(=O)N[C@@H](CCCNC(=N)N)C(=O)N[C@@H](C)C(=O)N[C@@H](CCC(N)=O)C(=O)N[C@@H]([C@@H](C)CC)C(=O)N[C@@H](C)C(=O)N[C@@H]([C@@H](C)CC)C(=O)N[C@H](C(=O)NCC(=O)N[C@@H](CCSC)C(=O)N[C@@H](CO)C(=O)N[C@H](C(=O)N[C@@H](Cc4c[nH]c5ccccc45)C(=O)N[C@@H](CO)C(=O)O)[C@@H](C)O)CSSC[C@@H](C(=O)O)NC(=O)[C@H](Cc4ccccc4)NC(=O)[C@H](CCCNC(=N)N)NC(=O)[C@H](C)NC(=O)[C@H](CC(C)C)NC(=O)[C@H](CO)NC(=O)[C@H](CCCNC(=N)N)NC(=O)[C@H](CCCCN)NC(=O)[C@H]([C@@H](C)O)NC3=O)NC2=O)cc1)C(=O)O` [AQ1-PEG36-Glu-C13-CH3]: the “% change in RBF over baseline” value in data set [1] was “+20^b %”. Moreover, in data set [1] (1 mg/kg), the “effect on renal blood flow (in words)” value was “increased renal blood flow; also recorded: good renal blood flow”.

As to `CC[C@H](C)[C@@H]1NC(=O)[C@H](C)NC(=O)[C@H]([C@@H](C)CC)NC(=O)[C@H](CCC(N)=O)NC(=O)[C@H](C)NC(=O)[C@H](CCCNC(=N)N)NC(=O)[C@H](C(C)C)NC(=O)[C@H](CC(C)C)NC(=O)[C@H](CCC(=O)O)NC(=O)[C@H](CCCNC(=N)N)NC(=O)CNC(=O)[C@@H](NC(=O)[C@H](CC(C)C)NC(=O)[C@H](CCCCN)NC(=O)[C@@H](NC(=O)[C@@H](NC(=O)[C@H](CCC(=O)O)NC(=O)[C@H](CCC(=O)O)NC(=O)[C@H](CCSC)NC(=O)[C@H](Cc2c[nH]c3ccccc23)NC(=O)[C@H](CO)NC(=O)[C@H](C)N)C(C)C)[C@@H](C)CC)CSSC[C@@H]2NC(=O)[C@@H](NC(=O)[C@H](CCCCN)NC(=O)[C@H](CC(N)=O)NC(=O)[C@H](C)NC(=O)[C@H](CC(C)C)NC(=O)[C@H](C)NC(=O)[C@H](CO)NC(=O)[C@H](Cc3ccc(O)cc3)NC(=O)[C@H](CC(C)C)NC(=O)[C@@H](N)Cc3ccc(/C(C)=N/OCCNC(=O)CC[C@H](NC(=O)CCCCCCCCCCCCC(=O)O)C(=O)O)cc3)CSSC[C@H](NC(=O)CNC(=O)[C@H](C(C)C)NC(=O)[C@H](Cc3c[nH]cn3)NC2=O)C(=O)N[C@@H]([C@@H](C)O)C(=O)N[C@@H](CCCCN)C(=O)N[C@@H](CCCNC(=N)N)C(=O)N[C@@H](CO)C(=O)N[C@@H](CC(C)C)C(=O)N[C@@H](C)C(=O)N[C@@H](CCCNC(=N)N)C(=O)N[C@@H](Cc2ccccc2)C(=O)N[C@H](C(=O)O)CSSC[C@@H](C(=O)NCC(=O)N[C@@H](CCSC)C(=O)N[C@@H](CO)C(=O)N[C@H](C(=O)N[C@@H](Cc2c[nH]c3ccccc23)C(=O)N[C@@H](CO)C(=O)O)[C@@H](C)O)NC1=O` [AQ1-Glu-C13-COOH], the “% change in RBF over baseline” value in data set [1] was “+14^b %”.

As for `CCCCCCCCCCCCCC(=O)N[C@@H](CCC(=O)NCCO/N=C(\C)c1ccc(C[C@H](N)C(=O)N[C@@H](CC(C)C)C(=O)N[C@@H](Cc2ccc(O)cc2)C(=O)N[C@@H](CO)C(=O)N[C@@H](C)C(=O)N[C@@H](CC(C)C)C(=O)N[C@@H](C)C(=O)N[C@@H](CC(N)=O)C(=O)N[C@@H](CCCCN)C(=O)N[C@H]2CSSC[C@@H]3NC(=O)CNC(=O)[C@H](C(C)C)NC(=O)[C@H](Cc4c[nH]cn4)NC(=O)[C@H](CSSC[C@H](NC(=O)[C@H](CC(C)C)NC(=O)[C@H](CCCCN)NC(=O)[C@@H](NC(=O)[C@@H](NC(=O)[C@H](CCC(=O)O)NC(=O)[C@H](CCC(=O)O)NC(=O)[C@H](CCSC)NC(=O)[C@H](Cc4c[nH]c5ccccc45)NC(=O)[C@H](CO)NC(=O)[C@H](C)N)C(C)C)[C@@H](C)CC)C(=O)NCC(=O)N[C@@H](CCCNC(=N)N)C(=O)N[C@@H](CCC(=O)O)C(=O)N[C@@H](CC(C)C)C(=O)N[C@@H](C(C)C)C(=O)N[C@@H](CCCNC(=N)N)C(=O)N[C@@H](C)C(=O)N[C@@H](CCC(N)=O)C(=O)N[C@@H]([C@@H](C)CC)C(=O)N[C@@H](C)C(=O)N[C@@H]([C@@H](C)CC)C(=O)N[C@H](C(=O)NCC(=O)N[C@@H](CCSC)C(=O)N[C@@H](CO)C(=O)N[C@H](C(=O)N[C@@H](Cc4c[nH]c5ccccc45)C(=O)N[C@@H](CO)C(=O)O)[C@@H](C)O)CSSC[C@@H](C(=O)O)NC(=O)[C@H](Cc4ccccc4)NC(=O)[C@H](CCCNC(=N)N)NC(=O)[C@H](C)NC(=O)[C@H](CC(C)C)NC(=O)[C@H](CO)NC(=O)[C@H](CCCNC(=N)N)NC(=O)[C@H](CCCCN)NC(=O)[C@H]([C@@H](C)O)NC3=O)NC2=O)cc1)C(=O)O` [AQ1-Glu-C13-CH3], in data set [1], the “% change in RBF over baseline” value was −27^b %. Also, the “effect on renal blood flow (in words)” value in data set [1] (1 mg/kg) is “impaired renal blood flow; also recorded: decreased renal blood flow”.

Consider “AQ1-20kDa PEG: AQ1 relaxin conjugated to PEG with an average MW of 20 kDa (chain 1 XLYSALANKCCHVGCTKRSLARFC; chain 2 ASWMEEVIKLCGRELVRAQIAICGMSTWS; non-natural residues)”, for which, in data set [1], the “% change in RBF over baseline” value is “+21%” and the “effect on renal blood flow (in words)” value is reported as “increased renal blood flow”. In addition, the “Rat PK AUC Total” value in data set [2] is 1.475 µM·h. Further, in data set [2] (read-out: Rat PK C24), the level at time molar at 24 h turned out to be 39 nM.

On to “BM25/AN1: human relaxin 2 with pAcF at B chain position 25 and asparagine at A chain position 1 (SEQ ID NO: 36, 37) (chain 1 NLYSALANKCCHVGCTKRSLARFC; chain 2 ASWMEEVIKLCGRELVRAQIAICG[Phe(4-Ac)]STWS; disulfide (positions not given here); ends not checked)”, for which, in data set [1], the “% change in RBF over baseline” value is −20% and the “effect on renal blood flow (in words)” value was “impaired renal blood flow”.
